Experimental data published in patent publication US12552766B2, “Pesticidally active azole amide compounds” (SYNGENTA CROP PROTECTION AG, priority 2019, dated 2026).

Assays:
Type in all cases: in vivo
[1] = system: Chilo suppressalis (Striped Rice Stemborer); assay: Example B4: Chilo suppressalis, artificial diet; settings: 144 h, application rate of 200 ppm, L2 larvae, 6 days after infestation, read-out: control in at least one of the three categories (mortality, anti-feedant effect, or growth inhibition)
How it was run: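 Scoring covers mortality, anti-feedant effect and growth inhibition at 6 days post-infestation, relative to untreated diet, with activity defined as at least one category above untreated. Test solutions were aqueous, made from 10'000 ppm DMSO stocks, and applied to artificial diet before drying and infestation with L2 larvae.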

[2] = system: Plutella xylostella (Diamondback Moth); assay: Example B13: Plutella xylostella, artificial diet, 96-well; settings: 216 h, application rate of 500 ppm, eggs/L1 larvae, 9 days after infestation
Protocol: 96-well microtiter plates containing artificial diet were treated with aqueous test solutions, prepared from 10′000 ppm DMSO stock solutions, by a liquid handling robot. After drying, eggs (˜30 per well) were infested onto a netted lid which was suspended above the diet. The eggs hatch and L1 larvae move down to the diet. The samples were assessed for mortality 9 days after infestation.

[3] = system: Myzus persicae (Green Peach Aphid); assay: Example B12: Myzus persicae, sucrose solution, 96-well; settings: 120 h, application rate of 50 ppm, 5 days after infestation
Protocol: Test compounds prepared from 10′000 ppm DMSO stock solutions were applied by a liquid handling robot into 96-well microtiter plates and mixed with a sucrose solution. Parafilm was stretched over the 96-well microtiter plate and a plastic stencil with 96 holes was placed onto the plate. Aphids were sieved into the wells directly onto the Parafilm. The infested plates were closed with a gel blotting card and a second plastic stencil and then turned upside down. The samples were assessed for mortality 5 days after infestation.

[4] = system: Plutella xylostella (Diamond Back Moth); assay: Example B5: Plutella xylostella, artificial diet, 24-well; settings: 192 h, application rate of 200 ppm, eggs, 8 days after infestation, read-out: control in at least one of the two categories (mortality or growth inhibition)
Protocol: 24-well microtiter plates with artificial diet were treated with aqueous test solutions prepared from 10′000 ppm DMSO stock solutions by pipetting. After drying, Plutella eggs were pipetted through a plastic stencil onto a gel blotting paper and the plate was closed with it. The samples were assessed for mortality and growth inhibition in comparison to untreated samples 8 days after infestation.

[5] = system: Diabrotica Balteata (Corn Root Worm); assay: Example B1: Diabrotica balteata, spray on maize sprouts; settings: 96 h, application rate of 200 ppm, L2 larvae, 4 days after infestation, read-out: control in at least one of the two categories (mortality or growth inhibition)
How it was run: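 Larvae at L2 stage, 6 to 10 per well, feed on dried, spray-treated maize sprouts set on agar. Evaluation after 4 days compares mortality and growth inhibition with untreated samples.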

[6] = system: Spodoptera littoralis (Egyptian Cotton Leaf Worm); assay: Example B9: Spodoptera littoralis, spray on cotton leaf discs; settings: foliar, 72 h, application rate of 200 ppm, L1 larvae, 3 days after infestation, read-out: control in at least one of the three categories (mortality, anti-feedant effect, or growth inhibition)
How it was run: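 Spray application onto agar-supported cotton leaf discs used aqueous solutions derived from 10′000 ppm DMSO stocks. Once dry, discs were infested with five L1 larvae and evaluated after 3 days for mortality, anti-feeding and growth inhibition relative to untreated controls.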

[7] = system: Euschistus heros (Neotropical Brown Stink Bug); assay: Example B2: Euschistus heros, spray on soybean leaves; settings: 120 h, application rate of 200 ppm, N2 nymphs, 5 days after infestation, read-out: control in at least one of the two categories (mortality or growth inhibition)
Protocol: Soybean leaves on agar in 24-well microtiter plates were sprayed with aqueous test solutions prepared from 10′000 ppm DMSO stock solutions. After drying the leaves were infested with N2 nymphs. The samples were assessed for mortality and growth inhibition in comparison to untreated samples 5 days after infestation.

[8] = system: Myzus persicae (Green Peach Aphid); assay: Example B6: Myzus persicae, feeding/contact activity; settings: 144 h, application rate of 200 ppm, mixed ages, 6 days after infestation
Protocol: Sunflower leaf discs were placed onto agar in a 24-well microtiter plate and sprayed with aqueous test solutions prepared from 10′000 ppm DMSO stock solutions. After drying, the leaf discs were infested with an aphid population of mixed ages. The samples were assessed for mortality 6 days after infestation.

CC(NC(=O)c1cc(OC(F)F)cc(C(F)(F)F)c1)c1nc(Br)nn1-c1ncc(OCC(F)F)cn1 (centres unmarked) [Compound P23, N-[1-[5-bromo-2-[5-(2,2-difluoroethoxy)pyrimidin-2-yl]-1,2,4-triazol-3-yl]ethyl]-3-(difluoromethoxy)-5-(trifluoromethyl)be nzamide]
≥ 80%: percent control (mortality, anti-feedant effect or growth inhibition) at 200 ppm [1] | mortality at 500 ppm [2] | mortality at 50 ppm [3] | percent control (mortality or growth inhibition) at 200 ppm [4] | percent control (mortality or growth inhibition) at 200 ppm [5] | percent control (mortality, anti-feedant effect or growth inhibition) at 200 ppm [6]

CC(NC(=O)c1cc(Cl)cc(C(F)(F)F)c1)c1nc(Br)nn1-c1ccc(OC(F)F)cn1 (centres unmarked) [Compound P26, N-[1-[5-bromo-2-[5-(difluoromethoxy)-2-pyridyl]-1,2,4-triazol-3-yl]ethyl]-3-chloro-5-(trifluoromethyl) benzamide]
≥ 80%: percent control (mortality, anti-feedant effect or growth inhibition) at 200 ppm [1] | percent control (mortality or growth inhibition) at 200 ppm [7] | percent control (mortality or growth inhibition) at 200 ppm [4] | percent control (mortality or growth inhibition) at 200 ppm [5] | percent control (mortality, anti-feedant effect or growth inhibition) at 200 ppm [6]

CC(NC(=O)c1cc(C(F)F)cc(C(F)(F)F)c1)c1nc(Br)nn1-c1ncc(OCC(F)F)cn1 (centres unmarked) [Compound P40, N-[1-[5-bromo-2-[5-(2,2-difluoroethoxy)pyrimidin-2-yl]-1,2,4-triazol-3-yl]ethyl]-3-(difluoromethyl)-5-(trifluoromethyl) benzamide]
≥ 80%: percent control (mortality, anti-feedant effect or growth inhibition) at 200 ppm [1] | percent control (mortality or growth inhibition) at 200 ppm [7] | mortality at 500 ppm [2] | percent control (mortality or growth inhibition) at 200 ppm [4] | percent control (mortality or growth inhibition) at 200 ppm [5] | percent control (mortality, anti-feedant effect or growth inhibition) at 200 ppm [6]

CC(NC(=O)c1cc(Br)cc(C(F)(F)F)c1)c1nc(Br)nn1-c1ncc(OCC(F)(F)F)cn1 (centres unmarked) [Compound P41, 3-bromo-N-[1-[5-bromo-2-[5-(2,2,2-trifluoroethoxy)pyrimidin-2-yl]-1,2,4-triazol-3-yl]ethyl]-5-(trifluoromethyl) benzamide]
≥ 80%: percent control (mortality, anti-feedant effect or growth inhibition) at 200 ppm [1] | mortality at 500 ppm [2] | percent control (mortality or growth inhibition) at 200 ppm [4] | percent control (mortality or growth inhibition) at 200 ppm [5] | percent control (mortality, anti-feedant effect or growth inhibition) at 200 ppm [6]

CC(NC(=O)c1cc(C(F)F)cc(C(F)(F)F)c1)c1nc(Br)nn1-c1ncc(OCC(F)(F)F)cn1 (centres unmarked) [Compound P42, N-[1-[5-bromo-2-[5-(2,2,2-trifluoroethoxy)pyrimidin-2-yl]-1,2,4-triazol-3-yl]ethyl]-3-(difluoromethyl)-5-(trifluoromethyl) benzamide]
≥ 80%: percent control (mortality, anti-feedant effect or growth inhibition) at 200 ppm [1] | mortality at 500 ppm [2] | percent control (mortality or growth inhibition) at 200 ppm [4] | percent control (mortality or growth inhibition) at 200 ppm [5] | percent control (mortality, anti-feedant effect or growth inhibition) at 200 ppm [6]

CC(NC(=O)c1cc(Cl)cc(C(F)(F)F)c1)c1nc(Br)nn1-c1ncc(OCC(F)(F)F)cn1 (centres unmarked) [Compound P43, N-[1-[5-bromo-2-[5-(2,2,2-trifluoroethoxy)pyrimidin-2-yl]-1,2,4-triazol-3-yl]ethyl]-3-chloro-5-(trifluoromethyl) benzamide]
≥ 80%: percent control (mortality, anti-feedant effect or growth inhibition) at 200 ppm [1] | mortality at 500 ppm [2] | mortality at 50 ppm [3] | percent control (mortality or growth inhibition) at 200 ppm [4] | percent control (mortality or growth inhibition) at 200 ppm [5] | percent control (mortality, anti-feedant effect or growth inhibition) at 200 ppm [6]

CC(NC(=O)c1cc(C(F)(F)F)cc(C(F)(F)F)c1)c1nc(Br)nn1-c1ncc(OCC(F)(F)F)cn1 (centres unmarked) [Compound P44, N-[1-[5-bromo-2-[5-(2,2,2-trifluoroethoxy)pyrimidin-2-yl]-1,2,4-triazol-3-yl]ethyl]-3,5-bis(trifluoromethyl) benzamide]
≥ 80%: percent control (mortality, anti-feedant effect or growth inhibition) at 200 ppm [1] | mortality at 500 ppm [2] | percent control (mortality or growth inhibition) at 200 ppm [4] | percent control (mortality or growth inhibition) at 200 ppm [5] | percent control (mortality, anti-feedant effect or growth inhibition) at 200 ppm [6]

CC(NC(=O)c1cc(OC(F)F)cc(C(F)(F)F)c1)c1nc(Br)nn1-c1ncc(OCC(F)(F)F)cn1 (centres unmarked) [Compound P45]
≥ 80%: percent control (mortality, anti-feedant effect or growth inhibition) at 200 ppm [1] | mortality at 500 ppm [2] | percent control (mortality or growth inhibition) at 200 ppm [4] | percent control (mortality or growth inhibition) at 200 ppm [5] | percent control (mortality, anti-feedant effect or growth inhibition) at 200 ppm [6]

CC(NC(=O)c1cc(OCC(F)(F)F)cc(C(F)(F)F)c1)c1nc(Br)nn1-c1ncc(OCC(F)(F)F)cn1 (centres unmarked) [Compound P46, N-[1-[5-bromo-2-[5-(2,2,2-trifluoroethoxy)pyrimidin-2-yl]-1,2,4-triazol-3-yl]ethyl]-3-(2,2,2-trifluoroethoxy)-5-(trifluoromethyl) benzamide]
≥ 80%: percent control (mortality, anti-feedant effect or growth inhibition) at 200 ppm [1] | mortality at 500 ppm [2] | percent control (mortality or growth inhibition) at 200 ppm [4] | percent control (mortality or growth inhibition) at 200 ppm [5] | percent control (mortality, anti-feedant effect or growth inhibition) at 200 ppm [6]

CC(NC(=O)c1cc(OCC(F)F)cc(C(F)(F)F)c1)c1nc(Br)nn1-c1ncc(OCC(F)F)cn1 (centres unmarked) [Compound P47, N-[1-[5-bromo-2-[5-(2,2-difluoroethoxy)pyrimidin-2-yl]-1,2,4-triazol-3-yl]ethyl]-3-(2,2-difluoroethoxy)-5-(trifluoromethyl) benzamide]
≥ 80%: percent control (mortality, anti-feedant effect or growth inhibition) at 200 ppm [1] | mortality at 500 ppm [2] | mortality at 50 ppm [3] | percent control (mortality or growth inhibition) at 200 ppm [4] | percent control (mortality, anti-feedant effect or growth inhibition) at 200 ppm [6]

CC(NC(=O)c1cc(Cl)cc(C(F)(F)F)c1)c1nc(Br)nn1-c1ccc(OCC(F)F)cn1 (centres unmarked) [Compound P49, N-[1-[5-bromo-2-[5-(2,2-difluoroethoxy)-2-pyridyl]-1,2,4-triazol-3-yl]ethyl]-3-chloro-5-(trifluoromethyl) benzamide]
≥ 80%: percent control (mortality, anti-feedant effect or growth inhibition) at 200 ppm [1] | mortality at 500 ppm [2] | percent control (mortality or growth inhibition) at 200 ppm [4] | percent control (mortality or growth inhibition) at 200 ppm [5] | percent control (mortality, anti-feedant effect or growth inhibition) at 200 ppm [6]

CC(NC(=O)c1cc(C(F)F)cc(C(F)(F)F)c1)c1nc(Br)nn1-c1ccc(OCC(F)F)cn1 (centres unmarked) [Compound P52, N-[1-[5-bromo-2-[5-(2,2-difluoroethoxy)-2-pyridyl]-1,2,4-triazol-3-yl]ethyl]-3-(difluoromethyl)-5-(trifluoromethyl) benzamide]
≥ 80%: percent control (mortality, anti-feedant effect or growth inhibition) at 200 ppm [1] | percent control (mortality or growth inhibition) at 200 ppm [7] | mortality at 500 ppm [2] | percent control (mortality or growth inhibition) at 200 ppm [4] | percent control (mortality or growth inhibition) at 200 ppm [5] | percent control (mortality, anti-feedant effect or growth inhibition) at 200 ppm [6]

CC(NC(=O)c1cc(OCC(F)F)cc(C(F)(F)F)c1)c1nc(Br)nn1-c1ccc(OCC(F)(F)F)cn1 (centres unmarked) [Compound P55, N-[1-[5-bromo-2-[5-(2,2,2-trifluoroethoxy)-2-pyridyl]-1,2,4-triazol-3-yl]ethyl]-3-(2,2-difluoroethoxy)-5-(trifluoromethyl) benzamide]
≥ 80%: percent control (mortality or growth inhibition) at 200 ppm [4] | mortality at 200 ppm [8]

CC(=O)c1nc(C(C)NC(=O)c2cc(C(F)(F)F)cc(C(F)(F)F)c2)n(-c2ccc(C#N)cn2)n1 (centres unmarked) [Compound P57, N-[1-[5-acetyl-2-(5-cyano-2-pyridyl)-1,2,4-triazol-3-yl]ethyl]-3,5-bis(trifluoromethyl) benzamide]
≥ 80%: percent control (mortality, anti-feedant effect or growth inhibition) at 200 ppm [1] | mortality at 500 ppm [2] | percent control (mortality or growth inhibition) at 200 ppm [4] | percent control (mortality or growth inhibition) at 200 ppm [5] | percent control (mortality, anti-feedant effect or growth inhibition) at 200 ppm [6]
